pIC50: −log10 of the molar value.
Target: T1, Histone deacetylase 11 (Homo sapiens, UniProt Q96DB2)
T1 sequence (Q96DB2 whole entry): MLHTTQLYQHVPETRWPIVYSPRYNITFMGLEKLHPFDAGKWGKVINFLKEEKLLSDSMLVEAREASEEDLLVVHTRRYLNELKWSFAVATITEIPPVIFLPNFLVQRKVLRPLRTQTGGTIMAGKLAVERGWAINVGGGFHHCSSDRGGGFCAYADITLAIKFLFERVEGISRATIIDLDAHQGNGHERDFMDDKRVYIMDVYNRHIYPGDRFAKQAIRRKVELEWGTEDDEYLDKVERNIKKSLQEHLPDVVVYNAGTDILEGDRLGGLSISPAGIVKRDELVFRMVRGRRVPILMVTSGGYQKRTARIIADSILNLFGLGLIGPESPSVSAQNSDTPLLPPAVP
Assay: Inhibition of full length human recombinant HDAC11 expressed in baculovirus infected insect S9 cells after 30 mins by fluorescence assay

Q: With `O=C(CCCCCOc1no[n+]([O-])c1S(=O)(=O)c1ccccc1)NO` as the molecule, how does the pIC50 read?
A: Its pIC50 is 6.22.

Reference: ChEMBL document CHEMBL3425494, “Design, synthesis, and antitumor evaluation of novel histone deacetylase inhibitors equipped with a phenylsulfonylfuroxan module as a nitric oxide donor” (J Med Chem, 2015)
